Reference: patent US11986532B2 (Arvinas Operations, Inc., priority 2021, dated 2024)

Molecular target: T1, BCL6 (Homo sapiens, UniProt P41182)
T1 construct: endogenous in cells; host or cells: T47D breast cancer epithelial cells
Assay: Immunofluorescence protocol for high content imaging of BCL6 (degradation) in T47D cells, 3 days compound treatment
Type: cell-based
Settings: T47D cells, 3 days compound treatment; for DC50: read-out: Mean DC50 (nM)* category; for Dmax: read-out: Mean Dmax (%)** category
Protocol: Immunofluorescence Protocol for High Content Imaging of BCL6
T47D cells were seeded in 100 μl volume of RPMI1640-10% FBS in a 96-well black/clear bottom plates for adherent lines (Corning #3904).
Day 1. T47D breast cancer epithelial cells were seeded at a density so that confluence is ˜70-90% at endpoint. Cells were seeded at 7K/0.1 ml/well the morning prior to the addition of exemplary bifunctional degradation compounds.
Day 2. Prepare an 11 point 3-fold serial dilution of exemplary bifunctional compound in DMSO and aliquot an appropriate volume to cell growth media to generate a 2× final concentration of exemplary bifunctional compound. Add an equal volume (0.1 ml) of 2× exemplary bifunctional compound/media mix to previously plated cells, for a final top concentration in aqueous cell growth media of 0.1 or 1 μM. Incubate for 3 days at 37° C., 5% CO2.
Day 5 Immunofluorescence. Discard cell media. Wash wells with 200 μl of room temperature phosphate-buffered saline (PBS). Prepared 4% paraformaldehyde (PFA) from 16% PFA (Electron Microscopy Sciences #15710) using 1×PBS. Fifty μl of 4% PF was added to each well and incubate for 15 minutes at room temperature to fix the cells. The PFA was aspirated and the cells washed twice with PBS (200 μl)).
Prepared 0.1% Triton X-100 in PBS using 10% triton X-100 stock. The cells were permeabilized by adding 100 ul of the 0.1% Triton X-100 in PBS to each well to permeabilize cells and incubating at room temperature for 15 minutes. Cells were washed twice with PBS.
Prepared 3% BSA/PBS (from Thermofisher #37515 Blocker BSA in TBS, 10%), and 100 ul was added to each well. The cells were incubated for at least 1 hour at room temperature.
Prepared 1% BSA/PBS using Blocker BSA/PBS, and the 3% BSA/PBS removed from the wells.
For no primary antibody controls, 50 μl 1% BSA/PBS was added.
Primary antibody (BCL6 Rb Ab, CST-14895, Cell Signaling) was diluted 1:300 in 1% BSA/PBS using Blocker BSA/PBS.
Fifty μl of primary antibody added to all remaining wells (i.e., all wells other than the primary antibody controls) and the cells were incubated overnight at 4° C. with slow orbital movement.
Day 6. Contents of the wells was removed and the cells washed four times with 200 ul PBS. 1% BSA/PBS was prepared using Blocker BSA in PBS.
Diluted secondary antibody goat anti-Rb IgG Alexa-488 1:1000, and cell mask-Alexa-647 1:3000 in 1% BSA/PBS in the same mix. Add 50 μl to each well and incubate at room temperature for 1 hour in the dark.
Cells were washed three times with 200 ul PBS, and then incubated for 10 minutes with 100 ul Hoechst dye at 1 μg/mL (20 mM stock) to stain cell nuclei. Wells were then washed with 200 μl PBS, and 100 ul of PBS was added to each well and the plate covered plate with a plastic opaque cover. Plates were stored at 4° C. and covered in aluminum foil until imaged.
Plates were equilibrated to room temperature prior to reading. The bottom of the plate was wiped with 70% isopropanol immediately prior to imaging.
10×, 4 fields/well, include Top hat smoothing in the analysis protocol.
16% paraformaldehyde: Electron Microscopy Sciences #15710
Hoechst: Thermofisher #62249
Blocker BSA in PBS, 10%: Thermofisher #37515
Blocker BSA in TBS, 10%: Thermofisher #37520
Goat anti-rabbit or mouse AlexaFluor-488: Thermofisher #A11008
Cell mask deep red AlexaFluor-647: Thermofisher #C10046
Wash buffer, PBS: 20×PBS, Thermofisher

Compound: CNC(=O)COc1cc2cc(Nc3nc(N4CCN(CC5CC6(CCN(c7cccc8c7CN(C7CCC(=O)NC7=O)C8=O)CC6)C5)CC4)ncc3Cl)ccc2n(C(C)C)c1=O (stereo not drawn) [Compound 7, 2-{[6-({5-chloro-2-[4-({7-[2-(2,6-dioxopiperidin-3-yl)-1-oxo-2,3-dihydro-1H-isoindol-4-yl]-7-azaspiro[3.5]nonan-2-yl}methyl)piperazin-1-yl]pyrimidin-4-yl}amino)-2-oxo-1-(propan-2-yl)-1,2-dihydroquinolin-3-yl]oxy}-N-methylacetamide]
- DC50: < 10 nM
- Dmax: ≥ 70%

Compound: CNC(=O)COc1cc2cc(Nc3nc(N4CCC(C(C)(C)N5CC6(CCN(c7cccc8c7CN(C7CCC(=O)NC7=O)C8=O)CC6)C5)CC4)ncc3Cl)ccc2n(C(C)C)c1=O (stereo not drawn) [Compound 8, 2-{[6-({5-chloro-2-[4-(2-{7-[2-(2,6-dioxopiperidin-3-yl)-1-oxo-2,3-dihydro-1H-isoindol-4-yl]-2,7-diazaspiro[3.5]nonan-2-yl}propan-2-yl)piperidin-1-yl]pyrimidin-4-yl}amino)-2-oxo-1-(propan-2-yl)-1,2-dihydroquinolin-3-yl]oxy}-N-methylacetamide]
- DC50: < 10 nM
- Dmax: ≥ 70%

Compound: CNC(=O)COc1cc2cc(Nc3nc(N4CCN(CC5CCC6(CC5)CN(c5c(OC)ccc7c5C(=O)N(C5CCC(=O)NC5=O)C7=O)C6)CC4)ncc3Cl)ccc2n(C(C)C)c1=O (stereo not drawn) [Compound 9, 2-{[6-({5-chloro-2-[4-({2-[2-(2,6-dioxopiperidin-3-yl)-5-methoxy-1,3-dioxo-2,3-dihydro-1H-isoindol-4-yl]-2-azaspiro[3.5]nonan-7-yl}methyl)piperazin-1-yl]pyrimidin-4-yl}amino)-2-oxo-1-(propan-2-yl)-1,2-dihydroquinolin-3-yl]oxy}-N-methylacetamide]
- DC50: < 10 nM
- Dmax: < 50%

Compound: CNC(=O)COc1cc2cc(Nc3nc(N4CCN(CC5CCC6(CC5)CN(c5cc(OC)cc7c5C(=O)N(C5CCC(=O)NC5=O)C7=O)C6)CC4)ncc3Cl)ccc2n(C(C)C)c1=O (stereo not drawn) [Compound 10, 2-{[6-({5-chloro-2-[4-({2-[2-(2,6-dioxopiperidin-3-yl)-6-methoxy-1,3-dioxo-2,3-dihydro-1H-isoindol-4-yl]-2-azaspiro[3.5]nonan-7-yl}methyl)piperazin-1-yl]pyrimidin-4-yl}amino)-2-oxo-1-(propan-2-yl)-1,2-dihydroquinolin-3-yl]oxy}-N-methylacetamide]
- DC50: 10 to 50 nM
- Dmax: 50 to 70%

Compound: CNC(=O)COc1cc2cc(Nc3nc(N4CCC5(CCN(CC6CCN(c7cccc8c7C(=O)N(C7CCC(=O)NC7=O)C8=O)CC6)C5)C4)ncc3Cl)ccc2n(C(C)C)c1=O (stereo not drawn) [Compound 11]
- DC50: 10 to 50 nM
- Dmax: ≥ 70%

Compound: CNC(=O)COc1cc2cc(Nc3nc(N4CCC5(CCN(CC6CCN(c7cccc8c7CN(C7CCC(=O)NC7=O)C8=O)CC6)C5)C4)ncc3Cl)ccc2n(C(C)C)c1=O (stereo not drawn) [Compound 12, 2-{[6-({5-chloro-2-[7-({1-[2-(2,6-dioxopiperidin-3-yl)-1-oxo-2,3-dihydro-1H-isoindol-4-yl]piperidin-4-yl}methyl)-2,7-diazaspiro[4.4]nonan-2-yl]pyrimidin-4-yl}amino)-2-oxo-1-(propan-2-yl)-1,2-dihydroquinolin-3-yl]oxy}-N-methylacetamide]
- DC50: < 10 nM
- Dmax: 50 to 70%

Compound: CNC(=O)COc1cc2cc(Nc3nc(N4CCN(C(C)(C)C5CCN(c6ccc7c(c6)CN(C6CCC(=O)NC6=O)C7=O)CC5)CC4)ncc3Cl)ccc2n(C(C)C)c1=O (stereo not drawn) [Compound 13, 2-{[6-({5-chloro-2-[4-(2-{1-[2-(2,6-dioxopiperidin-3-yl)-1-oxo-2,3-dihydro-1H-isoindol-5-yl]piperidin-4-yl}propan-2-yl)piperazin-1-yl]pyrimidin-4-yl}amino)-2-oxo-1-(propan-2-yl)-1,2-dihydroquinolin-3-yl]oxy}-N-methylacetamide]
- DC50: < 10 nM
- Dmax: ≥ 70%

Compound: CNC(=O)COc1cc2cc(Nc3nc(N4CCC5(CC4)CC(CN4CCN(c6cccc7c6CN(C6CCC(=O)NC6=O)C7=O)CC4)C5)ncc3Cl)ccc2n(C(C)C)c1=O (stereo not drawn) [Compound 14, 2-{[6-({5-chloro-2-[2-({4-[2-(2,6-dioxopiperidin-3-yl)-1-oxo-2,3-dihydro-1H-isoindol-4-yl]piperazin-1-yl}methyl)-7-azaspiro[3.5]nonan-7-yl]pyrimidin-4-yl}amino)-2-oxo-1-(propan-2-yl)-1,2-dihydroquinolin-3-yl]oxy}-N-methylacetamide]
- DC50: < 10 nM
- Dmax: ≥ 70%

Compound: CNC(=O)COc1cc2cc(Nc3nc(N4CCN(CC5CCN(c6cc7c(cc6F)C(=O)N(C6CCC(=O)NC6=O)C7)CC5)CC4)ncc3Cl)ccc2n(C(C)C)c1=O (stereo not drawn) [Compound 15, 2-{[6-({5-chloro-2-[4-({1-[2-(2,6-dioxopiperidin-3-yl)-6-fluoro-1-oxo-2,3-dihydro-1H-isoindol-5-yl]piperidin-4-yl}methyl)piperazin-1-yl]pyrimidin-4-yl}amino)-2-oxo-1-(propan-2-yl)-1,2-dihydroquinolin-3-yl]oxy}-N-methylacetamide]
- DC50: < 10 nM
- Dmax: 50 to 70%

Compound: CNC(=O)COc1cc2cc(Nc3nc(N4CCOC5(CN(CCC6CCN(c7cccc8c7C(=O)N(C7CCC(=O)NC7=O)C8=O)CC6)C5)C4)ncc3Cl)ccc2n(C(C)C)c1=O (stereo not drawn) [Compound 16]
- DC50: ≥ 100 nM

Compound: CNC(=O)COc1cc2cc(Nc3nc(N4CCC(F)(CN5CCC6(CCN(c7ccc8c(c7)CN(C7CCC(=O)NC7=O)C8=O)C6)C5)CC4)ncc3Cl)ccc2n(C(C)C)c1=O (stereo not drawn) [Compound 17, 2-{[6-({5-chloro-2-[4-({7-[2-(2,6-dioxopiperidin-3-yl)-1-oxo-2,3-dihydro-1H-isoindol-5-yl]-2,7-diazaspiro[4.4]nonan-2-yl}methyl)-4-fluoropiperidin-1-yl]pyrimidin-4-yl}amino)-2-oxo-1-(propan-2-yl)-1,2-dihydroquinolin-3-yl]oxy}-N-methylacetamide]
- DC50: < 10 nM
- Dmax: < 50%

Compound: CNC(=O)COc1cc2cc(Nc3nc(N4CCN(CC5CCN(c6cc(F)c7c(c6)CN(C6CCC(=O)NC6=O)C7=O)CC5)CC4)ncc3Cl)ccc2n(C(C)C)c1=O (stereo not drawn) [Compound 18, 2-{[6-({5-chloro-2-[4-({1-[2-(2,6-dioxopiperidin-3-yl)-7-fluoro-1-oxo-2,3-dihydro-1H-isoindol-5-yl]piperidin-4-yl}methyl)piperazin-1-yl]pyrimidin-4-yl}amino)-2-oxo-1-(propan-2-yl)-1,2-dihydroquinolin-3-yl]oxy}-N-methylacetamide]
- DC50: < 10 nM
- Dmax: 50 to 70%

Compound: CNC(=O)COc1cc2cc(Nc3nc(N4CCC5(CC4)CC(C(=O)N4CCC(c6cccc7c6CN(C6CCC(=O)NC6=O)C7=O)CC4)C5)ncc3Cl)ccc2n(C(C)C)c1=O (stereo not drawn) [Compound 19, 2-[(6-{[5-chloro-2-(2-{4-[2-(2,6-dioxopiperidin-3-yl)-1-oxo-2,3-dihydro-1H-isoindol-4-yl]piperidine-1-carbonyl}-7-azaspiro [3.5]nonan-7-yl)pyrimidin-4-yl]amino}-2-oxo-1-(propan-2-yl)-1,2-dihydroquinolin-3-yl)oxy]-N-methylacetamide]
- DC50: < 10 nM
- Dmax: 50 to 70%

Compound: CNC(=O)COc1cc2cc(Nc3nc(N4CCN(CC5CCN(c6ccc7c(c6OC)CN(C6CCC(=O)NC6=O)C7=O)CC5)CC4)ncc3Cl)ccc2n(C(C)C)c1=O (stereo not drawn) [Compound 20, 2-{[6-({5-chloro-2-[4-({1-[2-(2,6-dioxopiperidin-3-yl)-4-methoxy-1-oxo-2,3-dihydro-1H-isoindol-5-yl]piperidin-4-yl}methyl)piperazin-1-yl]pyrimidin-4-yl}amino)-2-oxo-1-(propan-2-yl)-1,2-dihydroquinolin-3-yl]oxy}-N-methylacetamide]
- DC50: ≥ 100 nM
- Dmax: ≥ 70%
